Patent publication US6706663B2, “Herbicidal 3-heterocyclic substituted benzisothiazole and benzisoxazole compounds” (Wyeth, priority 2000, dated 2004)

Tests used:
ORYSAT (Rice, Tebonnet) [1] = test: Preemergence herbicidal evaluation; assay type: in vivo, Oryza sativa, (L.) Tebonnet; conditions: Rate 0.0620 kg/ha; rated 4-5 weeks after treatment
Description: (§1) Results of herbicide evaluation are expressed on a rating scale (0-9). The scale is based upon a visual observation of plant stand, vigor, malformation, size, chlorosis and overall plant appearance as compared with a control.
(§2) The preemergence herbicidal activity of the test compounds of the present invention is exemplified by the following tests in which the seeds of a variety of monocotyledonous and dicotyledonous plants are separately mixed with potting soil and planted on top of approximately one inch of soil in separate pint cups. […] The treated cups are then placed on greenhouse benches, watered and cared for in accordance with conventional greenhouse procedures. From four to five weeks after treatment, the tests are terminated and each cup is examined and rated according to the rating system provided in Example 87. The plant species used and the compounds evaluated are the same as those shown in Example 87.

GALAP (Galium aparine) [2] = test: Preemergence herbicidal evaluation; assay type: in vivo; conditions: Rate 0.0620 kg/ha; rated 4-5 weeks after treatment
Description: as §1, §2

[3] = test system: GLXMAW (Soybean, Williams); test: Preemergence herbicidal evaluation; assay type: in vivo, Glycine max, (L.) Merr. cv Williams; conditions: Rate 0.0620 kg/ha; rated 4-5 weeks after treatment
Description: as §1, §2

[4] = test system: IPOHE (Ipomoea hederacea); test: Preemergence herbicidal evaluation; assay type: in vivo, (L.) Jacq.; conditions: Rate 0.0620 kg/ha; rated 4-5 weeks after treatment
Description: as §1, §2

[5] = test system: IPOHE (Ipomoea hederacea); test: Postemergence herbicidal evaluation; assay type: in vivo, (L.) Jacq.; conditions: postemergence
Procedure: (§3) In the tests, seedling plants are grown in jiffy flats for about two weeks. […] After spraying, the plants are placed on greenhouse benches and are cared for in accordance with conventional greenhouse procedures. From four to five weeks after treatment, the seedling plants are examined and rated according to the rating system set forth below. Where more than one test is involved for a given compound, the data are averaged.
as §1

SETVI (Setaria viridis) [6] = test: Postemergence herbicidal evaluation; assay type: in vivo, (L.) Beau; conditions: postemergence
Procedure: In the tests, seedling plants are grown in jiffy flats for about two weeks. The test compounds are dispersed in 50/50 acetone/water mixtures containing 0.5% TWEEN® 20, a polyoxyethylene sorbitan monolaurate surfactant of Atlas Chemical Industries, in sufficient quantities to provide the equivalent of about 0.0040 kg to 1.000 kg per hectare of active compound when applied to the plants through a spray nozzle operating at 40 psi for a predetermined time. After spraying, the plants are placed on greenhouse benches and are cared for in accordance with conventional greenhouse procedures. From four to five weeks after treatment, the seedling plants are examined and rated according to the rating system set forth below. Where more than one test is involved for a given compound, the data are averaged.
as §1

[7] = test system: TRZAWR (Wheat, Winter, cv Riband); test: Postemergence herbicidal evaluation; assay type: in vivo, Triticum aestivum; conditions: postemergence
Procedure: as §3, §1

[8] = test system: ABUTH (Abutilon theophrasti); test: Preemergence herbicidal evaluation; assay type: in vivo, Medic.; conditions: Rate 0.0620 kg/ha; rated 4-5 weeks after treatment
Description: as §1, §2

[9] = test system: MOOVA (Monochoria vaginalis); test: Flooded paddy, preemergence weed control; assay type: in vivo, Presl.; conditions: rated 3-4 weeks after treatment, 0-9 rating scale
Procedure: as §1
(§4) Preemergence herbicidal activity under flooded paddy conditions is determined as follows: plant seeds or propagating organs are planted in the top 0.5 cm of silt loam soil in 32 oz. plastic containers with a diameter of 10.5 cm and no drainage holes. Water is added to these containers and maintained at 1.5 to 3 cm above the soil surface for the duration of the experiment. […] The treated containers are placed on greenhouse benches and cared for in accordance with conventional greenhouse procedures.

[10] = test system: GLXMAW (Soybean, Williams); test: Postemergence herbicidal evaluation; assay type: in vivo, Glycine max, (L.) Merr. cv Williams; conditions: postemergence
Procedure: as §3, §1

[11] = test system: ABUTH (Abutilon theophrasti); test: Postemergence herbicidal evaluation; assay type: in vivo, Medic.; conditions: postemergence
Procedure: as §3, §1

[12] = test system: CASOB (Cassia obtusifolia); test: Postemergence herbicidal evaluation; assay type: in vivo, L.; conditions: postemergence
Procedure: as §3, §1

[13] = test system: CHEAL (Chenopodium album); test: Postemergence herbicidal evaluation; assay type: in vivo, L.; conditions: postemergence
Procedure: as §3, §1

[14] = test system: AMBEL (Ambrosia artemisifolia); test: Postemergence herbicidal evaluation; assay type: in vivo, L.; conditions: postemergence
Procedure: as §3, §1

[15] = test system: ECHORC (Echinochloa oryzoides); test: Flooded paddy, preemergence weed control; assay type: in vivo, Echinochloa oryzoides (Ard.) Fritsch.; conditions: rated 3-4 weeks after treatment, 0-9 rating scale
Procedure: as §1, §4

[16] = test system: ECHCG (Echinochloa crus-galli); test: Postemergence herbicidal evaluation; assay type: in vivo, (L.) Beau; conditions: postemergence
Procedure: as §3, §1

ORYSAT (Rice, Tebonnet) [17] = test: Postemergence herbicidal evaluation; assay type: in vivo, Oryza sativa, (L.) Tebonnet; conditions: postemergence
Procedure: as §3, §1

[18] = test system: CASOB (Cassia obtusifolia); test: Preemergence herbicidal evaluation; assay type: in vivo, L.; conditions: Rate 0.0620 kg/ha; rated 4-5 weeks after treatment
Description: as §1, §2

[19] = test system: CHEAL (Chenopodium album); test: Preemergence herbicidal evaluation; assay type: in vivo, L.; conditions: Rate 0.0620 kg/ha; rated 4-5 weeks after treatment
Description: as §1, §2

[20] = test system: AMBEL (Ambrosia artemisifolia); test: Preemergence herbicidal evaluation; assay type: in vivo, L.; conditions: Rate 0.0620 kg/ha; rated 4-5 weeks after treatment
Description: as §1, §2

CYPIR (Cyperus iria) = test: Flooded paddy, preemergence weed control; assay type: in vivo; conditions: rated 3-4 weeks after treatment, 0-9 rating scale
Procedure: as §1, §4

GALAP (Galium aparine) [21] = test: Postemergence herbicidal evaluation; assay type: in vivo; conditions: postemergence
Procedure: as §3, §1

SETVI (Setaria viridis) [22] = test: Preemergence herbicidal evaluation; assay type: in vivo, (L.) Beau; conditions: Rate 0.0620 kg/ha; rated 4-5 weeks after treatment
Description: as §1, §2

[23] = test system: ECHCG (Echinochloa crus-galli); test: Preemergence herbicidal evaluation; assay type: in vivo, (L.) Beau; conditions: Rate 0.0620 kg/ha; rated 4-5 weeks after treatment
Description: as §1, §2

ZEAMX (Corn, Field) [24] = test: Preemergence herbicidal evaluation; assay type: in vivo, Zea mays, L.; conditions: Rate 0.0620 kg/ha; rated 4-5 weeks after treatment
Description: as §1, §2

[25] = test system: TRZAWR (Wheat, Winter, cv Riband); test: Preemergence herbicidal evaluation; assay type: in vivo, Triticum aestivum; conditions: Rate 0.0620 kg/ha; rated 4-5 weeks after treatment
Description: as §1, §2

[26] = test system: SAGPY (Sagittaria pygmaea); test: Flooded paddy, preemergence weed control; assay type: in vivo, L.; conditions: rated 3-4 weeks after treatment, 0-9 rating scale
Procedure: as §1, §4

ZEAMX (Corn, Field) [27] = test: Postemergence herbicidal evaluation; assay type: in vivo, Zea mays, L.; conditions: postemergence
Procedure: as §3, §1

C[C@@H]1OC(c2nsc3cc(F)c(-n4c(=O)cc(C(F)(F)F)n(C)c4=O)cc23)O[C@@H]1C (stereo partly drawn) [Compound 66, 3-[3-[(4R,5S-)-4,5-dimethyl-1,3-dioxolan-2-yl]-6-fluoro-1,2-benzisothiazol-5-yl]-1-methyl-6-(trifluoromethyl)uracil]
Preemergence herbicidal rating ORYSAT (ORYSAT (Rice, Tebonnet) [1]): 8.5
Preemergence herbicidal rating GALAP (GALAP (Galium aparine) [2]): 7.0
Preemergence herbicidal rating GLXMAW [3]: 9.0
Preemergence herbicidal rating IPOHE [4]: 7.5
IPOHE herbicidal rating ([5]; rate 0.0320 kg/ha): 9.0
IPOHE herbicidal rating ([5]; rate 0.0620 kg/ha): 9.0
SETVI herbicidal rating (SETVI (Setaria viridis) [6]; rate 0.0320 kg/ha): 8.0
SETVI herbicidal rating (SETVI (Setaria viridis) [6]; rate 0.0620 kg/ha): 9.0
TRZAWR herbicidal rating ([7]; rate 0.0320 kg/ha): 4.0
TRZAWR herbicidal rating ([7]; rate 0.0620 kg/ha): 4.0
Preemergence herbicidal rating ABUTH [8]: 9.0
herbicidal rating, MOOVA ([9]; rate 0.0080 kg/ha): 0.0
herbicidal rating, MOOVA ([9]; rate 0.0320 kg/ha): 9.0
herbicidal rating, MOOVA ([9]; rate 0.1250 kg/ha): 9.0
GLXMAW herbicidal rating ([10]; rate 0.0320 kg/ha): 9.0
GLXMAW herbicidal rating ([10]; rate 0.0620 kg/ha): 9.0
ABUTH herbicidal rating ([11]; rate 0.0320 kg/ha): 9.0
ABUTH herbicidal rating ([11]; rate 0.0620 kg/ha): 9.0
CASOB herbicidal rating ([12]; rate 0.0320 kg/ha): 8.0
CASOB herbicidal rating ([12]; rate 0.0620 kg/ha): 9.0
CHEAL herbicidal rating ([13]; rate 0.0320 kg/ha): 9.0
CHEAL herbicidal rating ([13]; rate 0.0620 kg/ha): 9.0
AMBEL herbicidal rating ([14]; rate 0.0320 kg/ha): 9.0
AMBEL herbicidal rating ([14]; rate 0.0620 kg/ha): 9.0
herbicidal rating, ECHORC ([15]; rate 0.0080 kg/ha): 4.5
herbicidal rating, ECHORC ([15]; rate 0.0320 kg/ha): 9.0
herbicidal rating, ECHORC ([15]; rate 0.1250 kg/ha): 9.0
ECHCG herbicidal rating ([16]; rate 0.0320 kg/ha): 2.0
ECHCG herbicidal rating ([16]; rate 0.0620 kg/ha): 5.0
ORYSAT herbicidal rating (ORYSAT (Rice, Tebonnet) [17]; rate 0.0320 kg/ha): 4.5
ORYSAT herbicidal rating (ORYSAT (Rice, Tebonnet) [17]; rate 0.0620 kg/ha): 4.5
Preemergence herbicidal rating CASOB [18]: 6.0
Preemergence herbicidal rating CHEAL [19]: 9.0
Preemergence herbicidal rating AMBEL [20]: 9.0
herbicidal rating, CYPIR (CYPIR (Cyperus iria); rate 0.0080 kg/ha): 2.5
herbicidal rating, CYPIR (CYPIR (Cyperus iria); rate 0.0320 kg/ha): 6.0
herbicidal rating, CYPIR (CYPIR (Cyperus iria); rate 0.1250 kg/ha): 9.0
GALAP herbicidal rating (GALAP (Galium aparine) [21]; rate 0.0320 kg/ha): 9.0
GALAP herbicidal rating (GALAP (Galium aparine) [21]; rate 0.0620 kg/ha): 9.0
Preemergence herbicidal rating SETVI (SETVI (Setaria viridis) [22]): 9.0
Preemergence herbicidal rating ECHCG [23]: 9.0
Preemergence herbicidal rating ZEAMX (ZEAMX (Corn, Field) [24]): 8.0
Preemergence herbicidal rating TRZAWR [25]: 8.0
herbicidal rating, SAGPY ([26]; rate 0.0080 kg/ha): 2.5
herbicidal rating, SAGPY ([26]; rate 0.0320 kg/ha): 9.0
herbicidal rating, SAGPY ([26]; rate 0.1250 kg/ha): 9.0
ZEAMX herbicidal rating (ZEAMX (Corn, Field) [27]; rate 0.0320 kg/ha): 5.5
ZEAMX herbicidal rating (ZEAMX (Corn, Field) [27]; rate 0.0620 kg/ha): 5.5
